One data set has as its system RS4;11 cells. The data set can be described thus: Cell viability assay (CellTiter-Glo) in RS4;11 cells. The conditions noted are these: for IC50: Homo sapiens, 72 h; for cell viability inhibition in combination with pomalidomide: RS4;11, 3 days, pomalidomide at 10 μM (FIG. 4). The data set is classed as cell-based. The method, boiled down:
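RS4;11 cells seeded at 5000 per well, exposed for 3 days to 8- or 12-point 3-fold serial dilutions. Viability read by CellTiter-Glo luminescence; IC50 fitted by nonlinear least-squares regression.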

For a further data set, the system named is keratinocyte HACAT cells. The data set can be described thus: Cell viability of non-cancerous keratinocyte HACAT cells. The data set is classed as cell-based, human. The conditions noted are these: 3 days, 3-fold serial dilution (FIG. 6). How it is done:
Immortalized human lung fibroblast IMR-90 and keratinocyte HACAT cells were treated with JA-189 or JA-213 for 3 days at indicated concentrations following a 3-fold serial dilution.
(§1) Cells were seeded at a density of 5000 cells per well in 96-well assay plates and treated with test compounds following a 8-point or 12-point 3-fold serial dilution. Three days later, cell viability was determined using the CellTiter-Glo assay kit according to the manufacturer's instructions. The dose-response curves were determined and IC50 values were calculated using the GraphPad Prism software following a nonlinear regression (least squares fit) method.

A further data set concerns KM12 cells. The data set can be described thus: Cell viability assay (CellTiter-Glo) in KM12 cells. The class given is cell-based. The following applies: Homo sapiens, 72 h, KM12, colorectal carcinoma, 3 days. How it is done: (§2) MV4;11, RS4;11, Kasumi-1, HEL and other cells were treated with NVP-BSK805, TG101209 or selected degraders for 3 days at indicated concentrations following a 3-fold serial dilution.
(§3) HEL, RS4;11, MV4;11, Kasumi-1 and other cells were cultured at 37° C. with 5% CO2 in RPMI 1640 or DMEM Medium supplemented with 10% fetal bovine serum. Cells were authenticated using the short tandem repeat (STR) assays. Mycoplasma test results were negative.
as §1

The next data set deals with AMO-1 cells. The data set can be described thus: Cell viability assay (CellTiter-Glo) in AMO-1 cells. The data set is classed as cell-based. The following applies: Homo sapiens, AMO1, 72 h, AMO-1, Multiple Myeloma, 3 days. How it is done:
as §2, §3, §1
(ATP-based viability assays read luminescence as a measure of living cells.)

The next data set concerns Jurkat cells. Nature of the data set: Cell viability assay (CellTiter-Glo) in Jurkat cells. The class given is cell-based. The conditions noted are these: Homo sapiens, 72 h, T-ALL, 3 days. How it is done:
as §2, §3, §1

The test system of another data set is MOLM-13 cells. The data set can be described thus: Cell viability assay (CellTiter-Glo) in MOLM-13 cells. The class given is cell-based. The following applies: Homo sapiens, 72 h, MOLM-13, AML, 3 days. How it is done:
as §2, §3, §1

For a further data set, the system named is p-STAT3. The data set can be described thus: Immunoblot of p-STAT3 (downstream signaling) in HEL cells. The data set is classed as cell-based. The following applies: immunoblot (FIG. 1). How it is done:
To confirm JA-189 and JA-213 are true JAK degraders, HEL cell were treated with these two compounds at various compounds concentrations.
as §3
(§4) Rabbit anti-JAK1 antibody (3344S), anti-JAK2 antibody (3230S), anti-JAK3 antibody (8827S), anti-TYK2 antibody (14193S), anti-FLT3 antibody (3462S), anti-RET antibody (14556S), anti-phospho-STAT3 (Tyr705) antibody (9145S) and anti-phospho-STAT5 (Tyr694) antibody (4322S) were purchased from Cell Signaling Technology. Rabbit anti-GSPT1 antibody (ab126090) was purchased from Abcam. HRP-conjugated anti-α-tubulin antibody was produced in house. Media and other cell culture reagents were purchased from Thermo Fisher. The CellTiter-Glo Luminescent Assay kit was purchased from Promega.
Cultured cells were washed with cold PBS once and lysed in cold RIPA buffer supplemented with protease inhibitors and phosphatase inhibitors (Beyotime Biotechnology). […] Total protein concentrations in the lysates were determined by BCA assays (Beyotime Biotechnology). […] Protein bands were quantitated using the accompanied software provided by Bio-Rad.
(Immunoblotting shows a protein as a band on a membrane.)

A further data set concerns WSU-DLCL2 cells. The data set can be described thus: Cell viability assay (CellTiter-Glo) in WSU-DLCL2 cells. The following applies: Homo sapiens, WSUDLCL2, 72 h, WSU-DLCL2, DLBCL, 3 days. The data set is classed as cell-based. How it is done: as §2, §3, §1
The subject of a further data set is CCRF-CEM cells. The data set can be described thus: Cell viability assay (CellTiter-Glo) in CCRF-CEM cells. The data set is classed as cell-based. The following applies: Homo sapiens, 72 h, T-ALL, 3 days. How it is done:
as §2, §3, §1

The subject of the next data set is MV4;11 cells. The data set can be described thus: Cell viability assay (CellTiter-Glo) in MV4;11 cells. The following applies: for IC50: Homo sapiens, 72 h, MV4;11, AML, cell viability, 3 days; for cell viability inhibition in combination with pomalidomide: MV4;11, 3 days, pomalidomide at 10 μM (FIG. 4). The data set is classed as cell-based. How it is done:
as §2, §3, §1

In another data set the test system is MEG-01 cells. Nature of the data set: Cell viability assay (CellTiter-Glo) in MEG-01 cells. The data set is classed as cell-based. The following applies: Homo sapiens, 72 h, MEG-01, CML, 3 days. How it is done:
as §2, §3, §1

A further data set concerns HEL cells. Nature of the data set: Cell viability assay (CellTiter-Glo) in HEL cells. The data set is classed as cell-based. The conditions noted are these: 3 days; for cell viability inhibition in combination with pomalidomide: pomalidomide at 10 μM (FIG. 4); for IC50: Homo sapiens, 72 h, erythroleukemia, cell viability. How it is done:
as §2, §3, §1

A further data set deals with T1, JAK1 (Homo sapiens, UniProt P23458).
T1 construct: immunoblot of JAK1/3 proteins expressed in RS4;11 cells; endogenous in cells; host or cells: RS4;11 cells
T1 sequence (P23458 whole entry): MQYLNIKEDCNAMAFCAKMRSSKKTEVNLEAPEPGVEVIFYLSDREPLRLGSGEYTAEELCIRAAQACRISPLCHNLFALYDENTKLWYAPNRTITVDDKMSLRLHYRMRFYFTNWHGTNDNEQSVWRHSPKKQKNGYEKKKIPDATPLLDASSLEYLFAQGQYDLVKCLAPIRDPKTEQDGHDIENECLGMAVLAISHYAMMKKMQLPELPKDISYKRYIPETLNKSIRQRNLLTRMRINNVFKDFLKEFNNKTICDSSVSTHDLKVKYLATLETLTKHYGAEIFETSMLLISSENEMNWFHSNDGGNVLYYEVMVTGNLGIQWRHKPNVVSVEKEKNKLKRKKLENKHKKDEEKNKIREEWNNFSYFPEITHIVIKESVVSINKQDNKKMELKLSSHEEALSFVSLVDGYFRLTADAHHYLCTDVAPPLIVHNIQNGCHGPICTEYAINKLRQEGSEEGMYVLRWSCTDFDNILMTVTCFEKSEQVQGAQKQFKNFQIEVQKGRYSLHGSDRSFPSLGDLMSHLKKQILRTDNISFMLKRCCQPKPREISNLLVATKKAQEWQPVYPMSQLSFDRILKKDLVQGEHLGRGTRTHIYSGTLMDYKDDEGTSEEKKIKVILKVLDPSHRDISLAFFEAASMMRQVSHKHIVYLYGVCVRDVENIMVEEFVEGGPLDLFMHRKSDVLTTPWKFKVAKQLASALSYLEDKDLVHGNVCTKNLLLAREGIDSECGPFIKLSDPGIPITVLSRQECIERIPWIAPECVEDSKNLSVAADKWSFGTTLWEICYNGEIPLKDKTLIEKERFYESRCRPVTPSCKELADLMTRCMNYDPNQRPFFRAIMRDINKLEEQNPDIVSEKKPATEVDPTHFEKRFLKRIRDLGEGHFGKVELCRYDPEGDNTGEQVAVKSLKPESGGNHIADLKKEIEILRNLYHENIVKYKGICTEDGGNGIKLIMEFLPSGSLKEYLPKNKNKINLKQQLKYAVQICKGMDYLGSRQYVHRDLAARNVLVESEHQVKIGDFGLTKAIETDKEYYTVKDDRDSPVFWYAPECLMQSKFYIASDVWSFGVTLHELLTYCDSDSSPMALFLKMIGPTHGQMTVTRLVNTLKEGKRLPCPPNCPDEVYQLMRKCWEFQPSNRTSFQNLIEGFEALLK
The data set can be described thus: Immunoblot of JAK1 protein level in RS4;11 cells. The conditions noted are these: 24 hours; for JAK1 protein level: immunoblot (FIG. 2). The data set is classed as cell-based. How it is done:
RS4;11 cells were treated with compounds at indicated concentrations for 24 hours. […] The concentrations required to reduce JAK1 by 50% (DC50) were below 5 nM and 35 nM for compound JA-189 and JA213, respectively.
as §3, §4
(§5) Cultured cells were washed with cold PBS once and lysed in cold RIPA buffer supplemented with protease inhibitors and phosphatase inhibitors (Beyotime Biotechnology). The solutions were then incubated at 4° C. for 30 minutes with gentle agitation to fully lyse cells. Cell lysates were centrifuged at 13,000 rpm for 10 minutes at 4° C. and pellets were discarded. Total protein concentrations in the lysates were determined by BCA assays (Beyotime Biotechnology). Cell lysates were mixed with Laemmli loading buffer to 1× and heated at 99° C. for 5 min. Proteins were resolved on SDS-PAGE and visualized by chemiluminescence. Images were taken by a ChemiDoc MP Imaging system (Bio-Rad). Protein bands were quantitated using the accompanied software provided by Bio-Rad.

Another data set has as its system Pfeiffer cells. The data set can be described thus: Cell viability assay (CellTiter-Glo) in Pfeiffer cells. The data set is classed as cell-based. The following applies: Homo sapiens, 72 h, DLBCL, 3 days. How it is done: as §2, §3, §1
The next data set concerns the target T2, GSPT1 (Homo sapiens, UniProt P15170).
T2 construct: immunoblot of GSPT1 and tubulin expressed in RS4:11 cells; endogenous in cells; host or cells: RS4;11 cells
Nature of the data set: Immunoblot of GSPT1 protein level in RS4;11 cells. The following applies: 16 hours; for GSPT1 protein level: immunoblot (FIG. 5). The class given is cell-based. How it is done:
RS4;11 cells were treated with compounds at indicated concentrations for 16 hours. […] The concentrations required to reduce GSPT1 by 50% (DC50) were below 2 nM for compound JA-189 and 10 nM JA213.
as §3, §4, §5

The next data set concerns Kasumi-1 cells. Nature of the data set: Cell viability assay (CellTiter-Glo) in Kasumi-1 cells. The data set is classed as cell-based. The following applies: for IC50: Homo sapiens, 72 h, Kasumi-1, AML, cell viability, 3 days; for cell viability inhibition in combination with pomalidomide: Kasumi-1, 3 days, pomalidomide at 10 μM (FIG. 4). How it is done: as §2, §3, §1
The subject of the next data set is MM.1S cells. The data set can be described thus: Cell viability assay (CellTiter-Glo) in MM.1S cells. The data set is classed as cell-based. The conditions noted are these: Homo sapiens, MM1.S, 72 h, Multiple Myeloma, 3 days. How it is done:
as §2, §3, §1

Another data set has as its system NCI-H929 cells. The data set can be described thus: Cell viability assay (CellTiter-Glo) in NCI-H929 cells. The data set is classed as cell-based. The conditions noted are these: Homo sapiens, 72 h, NCI-H929, Multiple Myeloma, 3 days. How it is done: as §2, §3, §1
The mark [1] stands for this setting: RS4;11 ALL cells treated for three days, read-out: cell viability inhibition IC50.
Setting [2] is: RS4;11 cells, cell viability, 3 days, CellTiter-Glo, read-out: IC50.

Where two headings read alike, the source gives them in different places.

By IC50 is commonly meant the concentration that inhibits the measured activity by half.

T2 sequence (P15170 whole entry): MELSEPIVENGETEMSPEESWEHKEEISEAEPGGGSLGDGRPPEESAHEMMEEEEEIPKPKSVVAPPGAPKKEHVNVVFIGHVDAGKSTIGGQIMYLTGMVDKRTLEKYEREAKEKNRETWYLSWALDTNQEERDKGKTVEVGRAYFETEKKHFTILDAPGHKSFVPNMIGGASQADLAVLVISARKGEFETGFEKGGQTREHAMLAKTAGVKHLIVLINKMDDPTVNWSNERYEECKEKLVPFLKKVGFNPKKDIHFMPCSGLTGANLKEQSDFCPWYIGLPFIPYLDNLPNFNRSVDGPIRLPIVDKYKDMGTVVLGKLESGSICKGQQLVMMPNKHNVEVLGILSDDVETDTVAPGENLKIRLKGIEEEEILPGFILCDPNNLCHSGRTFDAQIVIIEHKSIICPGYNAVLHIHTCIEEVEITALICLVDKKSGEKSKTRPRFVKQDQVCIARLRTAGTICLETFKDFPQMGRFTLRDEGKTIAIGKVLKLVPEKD

As for `O=C1CCC(N2C(=O)c3ccc(NCCCCCC(=O)N4CCC(n5cc(-c6cnc7cccc(-c8cc(F)c(CN9CCOCC9)c(F)c8)c7n6)cn5)CC4)cc3C2=O)C(=O)N1` (stereo not drawn) [JA-189, 5-((6-(4-(4-(8-(3,5-difluoro-4-(morpholinomethyl)phenyl)quinoxalin-2-yl)-1H-pyrazol-1-yl)piperidin-1-yl)-6-oxohexyl)amino)-2-(2,6-dioxopiperidin-3-yl)isoindoline-1,3-dione], the IC50 with RS4;11 cells (setting [1]) was below 100 nM; in the data set on RS4;11 cells (setting [2]) it was 2.03 nM; in the data set with KM12 cells it was 2370 nM; with AMO-1 cells, 612 nM; with Jurkat cells, 34.2 nM; with MOLM-13 cells, 20.8 nM. Further, the IC50 was determined as 106 nM with WSU-DLCL2 cells; 3.84 nM in the data set on CCRF-CEM cells; 7.93 nM in the data set with MV4;11 cells; 89.2 nM with MEG-01 cells; 177 nM in the data set with HEL cells; 320 nM with Pfeiffer cells. Besides, the IC50 with Kasumi-1 cells is 86.3 nM; in the data set with MM.1S cells, 2.27 nM; with NCI-H929 cells, 106 nM. For the same molecule, the “cell viability inhibition in combination with pomalidomide” value in the data set with RS4;11 cells, in the data set with MV4;11 cells, in the data set on HEL cells and in the data set on Kasumi-1 cells was “greatly reduce the potencies of the degraders” throughout. For the same molecule, the “sensitivity of non-cancerous cells (cell viability)” value in the data set on keratinocyte HACAT cells was “not sensitive”. The “down stream signaling, p-STAT3 band” value in the data set with p-STAT3 was “weaker bands of p-STAT3 and p-STAT5”. The JAK1 protein level result at JAK1 was “even better activity in reducing the JAK1 and JAK3 protein levels”. Further, the DC50 on JAK1 (immunoblot, read-out: concentration required to reduce JAK1 by 50% (DC50)) was below 5 nM; on GSPT1 (immunoblot, read-out: concentration required to reduce GSPT1 by 50% (DC50)), below 2 nM. Moreover, the GSPT1 protein level entry at GSPT1 is recorded as “induced degradation of GSPT1 in a dose dependent manner”.
`CS(=O)(=O)c1ccc(-c2cccc3nc(Nc4ccc(N5CCN(CC(=O)NCCCCCCCCNc6ccc7c(c6)C(=O)N(C6CCC(=O)NC6=O)C7=O)CC5)cc4)nn23)cc1` (stereo not drawn) [JA-213]: the IC50 in the data set with RS4;11 cells (setting [1]) was below 100 nM; in the data set on RS4;11 cells (setting [2]), 8.45 nM; with KM12 cells it was 679 nM; with AMO-1 cells it was 722 nM; with Jurkat cells, 62.7 nM; with MOLM-13 cells, 27.4 nM. Also, the half-maximal inhibitory concentration (IC50) in the data set on WSU-DLCL2 cells came to 168 nM; in the data set with CCRF-CEM cells, 19.1 nM; in the data set on MV4;11 cells, 19.6 nM; with MEG-01 cells, 74 nM; in the data set with HEL cells, 82.1 nM; in the data set with Pfeiffer cells it was 266 nM. For the same molecule, the IC50 in the data set on Kasumi-1 cells is 69.1 nM; in the data set on MM.1S cells it was 23.1 nM; in the data set on NCI-H929 cells, 124 nM. Moreover, the “cell viability inhibition in combination with pomalidomide” value in the data set with RS4;11 cells, in the data set on MV4;11 cells, with HEL cells and with Kasumi-1 cells was “greatly reduce the potencies of the degraders” each time. The “sensitivity of non-cancerous cells (cell viability)” value in the data set with keratinocyte HACAT cells is recorded as “not sensitive”. Also, in the data set with p-STAT3, the “down stream signaling, p-STAT3 band” value was “weaker bands of p-STAT3 and p-STAT5”. Moreover, the JAK1 protein level entry at JAK1 was “even better activity in reducing the JAK1 and JAK3 protein levels”. In addition, on GSPT1, the GSPT1 protein level result is “induced degradation of GSPT1 in a dose dependent manner”.
